{"source": "paper PMC9862586", "about": "“3-(Adenosylthio)benzoic Acid Derivatives as SARS-CoV-2 Nsp14 Methyltransferase Inhibitors” (Molecules, 2023)", "assay_in_all_cases": "HTRF methyltransferase assay (SAM to SAH)", "assay_type_in_all_cases": "biochemical", "key": {"[1]": {"biological_target": "T1, human glycine N-methyltransferase (hGNMT) (Homo sapiens, UniProt Q14749)", "T1 construct": "gene GNMT; commercial protein (MyBioSource); homotetramer by known biology", "T1 sequence (Q14749 2-295)": "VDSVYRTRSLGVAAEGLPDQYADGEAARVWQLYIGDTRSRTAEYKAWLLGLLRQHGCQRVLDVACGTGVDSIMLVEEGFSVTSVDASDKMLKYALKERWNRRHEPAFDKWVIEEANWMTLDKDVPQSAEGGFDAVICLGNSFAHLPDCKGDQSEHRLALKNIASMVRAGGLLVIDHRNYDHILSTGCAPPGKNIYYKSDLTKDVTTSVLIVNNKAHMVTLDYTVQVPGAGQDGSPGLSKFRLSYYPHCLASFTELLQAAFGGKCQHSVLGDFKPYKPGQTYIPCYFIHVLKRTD", "from_the_text": "HTRF methyltransferase assay (SAM to SAH) on human glycine N-methyltransferase (hGNMT)"}, "[2]": {"biological_target": "T2, SARS-CoV-2 nsp14 guanine-N7-methyltransferase (Severe acute respiratory syndrome coronavirus 2, UniProt P0DTD1)", "T2 construct": "gene rep", "from_the_text": "HTRF methyltransferase assay (SAM to SAH) on SARS-CoV-2 nsp14 guanine-N7-methyltransferase"}, "nsp16/nsp10": {"biological_target": "T3, nsp16/nsp10 (Severe acute respiratory syndrome coronavirus 2, UniProt P0DTD1)", "T3 construct": "gene rep", "conditions": "read-out: SARS-CoV-2 / nsp16/nsp10, IC50", "from_the_text": "HTRF methyltransferase assay (SAM to SAH) on nsp16/nsp10"}}, "data": [{"smiles": "Nc1ncnc2c1ncn2[C@@H]1O[C@H](CSCc2cc(C(=O)O)cc(-c3ccc(O)cc3)c2)[C@@H](O)[C@H]1O", "note": "[5t, 5-(((Adenosyl)thio)methyl)-4′-hydroxy-[1,1′-biphenyl]-3-carboxylic acid]", "values": [{"measurement": "IC50", "setting": "[1]", "result": "4.5 ± 0.2", "unit": "nM"}, {"measurement": "IC50", "setting": "[2]", "result": "4.2 ± 0.2", "unit": "nM"}]}, {"smiles": "N#Cc1cccc(CSC[C@H]2O[C@@H](n3cnc4c(N)ncnc43)[C@H](O)[C@@H]2O)c1", "note": "[5g, 3-(((Adenosyl)thio)methyl)benzonitrile]", "values": [{"measurement": "IC50", "setting": "[1]", "result": "724 ± 58", "unit": "nM"}, {"measurement": "IC50", "setting": "[2]", "result": "351 ± 28", "unit": "nM"}]}, {"smiles": "Nc1ncnc2c1ncn2[C@@H]1O[C@H](CSCc2cccc(O)c2)[C@@H](O)[C@H]1O", "note": "[5e, 5′-(((3-Hydroxy)benzyl)thio)-5′-deoxyadenosine]", "values": [{"measurement": "IC50", "setting": "[1]", "result": "600 ± 30", "unit": "nM"}]}, {"smiles": "CNS(=O)(=O)c1cccc(CSC[C@H]2O[C@@H](n3cnc4c(N)ncnc43)[C@H](O)[C@@H]2O)c1", "note": "[5j, 3-(((Adenosyl)thio)methyl)-N-methylbenzenesulfonamide]", "values": [{"measurement": "IC50", "setting": "[1]", "result": "350 ± 17", "unit": "nM"}, {"measurement": "IC50", "setting": "[2]", "result": "400 ± 19", "unit": "nM"}]}, {"smiles": "Nc1ncnc2c1ncn2[C@@H]1O[C@H](CSCc2cc(C#CCO)cc(C(=O)O)c2)[C@@H](O)[C@H]1O", "note": "[5v, 3-(((Adenosyl)thio)methyl)-5-(3-hydroxyprop-1-yn-1-yl)benzoic acid]", "values": [{"measurement": "IC50", "setting": "[1]", "result": "9.8 ± 0.5", "unit": "nM"}, {"measurement": "IC50", "setting": "[2]", "result": "12 ± 0.6", "unit": "nM"}]}, {"smiles": "Nc1ncnc2c1ncn2[C@@H]1O[C@H](CSCc2cccc(-c3nn[nH]n3)c2)[C@@H](O)[C@H]1O", "note": "[5h, 5′-((3-(Tetrazolyl)benzyl)thio)-5′-deoxyadenosine]", "values": [{"measurement": "IC50", "setting": "[1]", "result": "220 ± 9", "unit": "nM"}, {"measurement": "IC50", "setting": "[2]", "result": "340 ± 12", "unit": "nM"}]}, {"smiles": "Nc1ncnc2c1ncn2[C@@H]1O[C@H](CSc2ccc(Br)c(C(=O)O)c2)[C@@H](O)[C@H]1O", "note": "[10c, 2-Bromo-5-((adenosyl)thio)benzoic acid]", "values": [{"measurement": "IC50", "setting": "[1]", "result": "8.2 ± 0.4", "unit": "nM"}, {"measurement": "IC50", "setting": "[2]", "result": "24 ± 2", "unit": "nM"}]}, {"smiles": "CS(=O)(=O)c1cccc(CSC[C@H]2O[C@@H](n3cnc4c(N)ncnc43)[C@H](O)[C@@H]2O)c1", "note": "[5i, 5′-((3-(Methylsulfonyl)benzyl)thio)-5′-deoxyadenosine]", "values": [{"measurement": "IC50", "setting": "[1]", "result": "250 ± 20", "unit": "nM"}, {"measurement": "IC50", "setting": "[2]", "result": "270 ± 20", "unit": "nM"}]}, {"smiles": "Nc1ncnc2c1ncn2[C@@H]1O[C@H](CSCc2ccc(-c3ccccc3)c(C(=O)O)c2)[C@@H](O)[C@H]1O", "note": "[5r, 4-(((Adenosyl)thio)methyl)-[1,1′-biphenyl]-2-carboxylic acid]", "values": [{"measurement": "IC50", "setting": "[1]", "result": "10 ± 0.5", "unit": "nM"}, {"measurement": "IC50", "setting": "[2]", "result": "36 ± 1.8", "unit": "nM"}]}, {"smiles": "Nc1ncnc2c1ncn2[C@@H]1O[C@H](CSCc2cc(Cl)cc(C(=O)O)c2)[C@@H](O)[C@H]1O", "note": "[5o, 3-(((Adenosyl)thio)methyl)-5-chlorobenzoic acid]", "values": [{"measurement": "IC50", "setting": "[1]", "result": "15 ± 0.7", "unit": "nM"}, {"measurement": "IC50", "setting": "[2]", "result": "24 ± 1.2", "unit": "nM"}]}, {"smiles": "Nc1ncnc2c1ncn2[C@@H]1O[C@H](CSc2ccc(Cl)c(C(=O)O)c2)[C@@H](O)[C@H]1O", "note": "[10a, 2-Chloro-5-((adenosyl)thio)benzoic acid]", "values": [{"measurement": "IC50", "setting": "nsp16/nsp10", "result": "30 ± 4", "unit": "nM"}, {"measurement": "IC50", "setting": "[1]", "result": "13 ± 2", "unit": "nM"}, {"measurement": "IC50", "setting": "[2]", "result": "20 ± 2", "unit": "nM"}]}, {"smiles": "CNC(=O)c1cccc(CSC[C@H]2O[C@@H](n3cnc4c(N)ncnc43)[C@H](O)[C@@H]2O)c1", "note": "[5l, 3-(((Adenosyl)thio)methyl)-N-methylbenzamide]", "values": [{"measurement": "IC50", "setting": "[1]", "result": "2780 ± 130", "unit": "nM"}, {"measurement": "IC50", "setting": "[2]", "result": "2790 ± 140", "unit": "nM"}]}, {"smiles": "Nc1ncnc2c1ncn2[C@@H]1O[C@H](CSCc2ccc(C(=O)O)cc2)[C@@H](O)[C@H]1O", "note": "[5a, 4-(((Adenosyl)thio)methyl)benzoic acid]", "values": [{"measurement": "IC50", "setting": "nsp16/nsp10", "result": "1450 ± 70", "unit": "nM"}, {"measurement": "IC50", "setting": "[1]", "result": "400 ± 40", "unit": "nM"}, {"measurement": "IC50", "setting": "[2]", "result": "500 ± 30", "unit": "nM"}]}, {"smiles": "COC(=O)c1cccc(CSC[C@H]2O[C@@H](n3cnc4c(N)ncnc43)[C@H](O)[C@@H]2O)c1", "note": "[5k, Methyl 3-(((adenosyl)thio)methyl)benzoate]", "values": [{"measurement": "IC50", "setting": "[1]", "result": "870 ± 50", "unit": "nM"}, {"measurement": "IC50", "setting": "[2]", "result": "1350 ± 70", "unit": "nM"}]}, {"smiles": "Nc1ncnc2c1ncn2[C@@H]1O[C@H](CSCc2cccc(CO)c2)[C@@H](O)[C@H]1O", "note": "[5f, 5′-(((3-Hydroxymethyl)benzyl)thio)-5′-deoxyadenosine]", "values": [{"measurement": "IC50", "setting": "[1]", "result": "1200 ± 100", "unit": "nM"}, {"measurement": "IC50", "setting": "[2]", "result": "740 ± 40", "unit": "nM"}]}, {"smiles": "Nc1ncnc2c1ncn2[C@@H]1O[C@H](CSCc2ccc(F)c(C(=O)O)c2)[C@@H](O)[C@H]1O", "note": "[5n, 5-(((Adenosyl)thio)methyl)-2-fluorobenzoic acid]", "values": [{"measurement": "IC50", "setting": "[1]", "result": "6.1 ± 0.3", "unit": "nM"}, {"measurement": "IC50", "setting": "[2]", "result": "16 ± 2", "unit": "nM"}]}, {"smiles": "Nc1ncnc2c1ncn2[C@@H]1O[C@H](CSc2ccc(C(=O)O)c(-c3ccccc3)c2)[C@@H](O)[C@H]1O", "note": "[10f, 5-((Adenosyl)thio)-[1,1′-biphenyl]-2-carboxylic acid]", "values": [{"measurement": "IC50", "setting": "[1]", "result": "210 ± 10", "unit": "nM"}, {"measurement": "IC50", "setting": "[2]", "result": "420 ± 19", "unit": "nM"}]}, {"smiles": "CS(=O)(=O)Nc1cccc(CSC[C@H]2O[C@@H](n3cnc4c(N)ncnc43)[C@H](O)[C@@H]2O)c1", "note": "[5c, N-(3-(((Adenosyl)thio)methyl)phenyl)methanesulfonamide]", "values": [{"measurement": "IC50", "setting": "nsp16/nsp10", "result": "480 ± 30", "unit": "nM"}, {"measurement": "IC50", "setting": "[1]", "result": "250 ± 20", "unit": "nM"}, {"measurement": "IC50", "setting": "[2]", "result": "280 ± 20", "unit": "nM"}]}, {"smiles": "Nc1ncnc2c1ncn2[C@@H]1O[C@H](CSCc2ccc(Cl)c(C(=O)O)c2)[C@@H](O)[C@H]1O", "note": "[5m, 5-(((Adenosyl)thio)methyl)-2-chlorobenzoic acid]", "values": [{"measurement": "IC50", "setting": "[1]", "result": "6.6 ± 0.3", "unit": "nM"}, {"measurement": "IC50", "setting": "[2]", "result": "7.7 ± 0.4", "unit": "nM"}]}, {"smiles": "Nc1ncnc2c1ncn2[C@@H]1O[C@H](CSc2cc(C(=O)O)ccc2Cl)[C@@H](O)[C@H]1O", "note": "[10b, 4-Chloro-5-((adenosyl)thio)benzoic acid]", "values": [{"measurement": "IC50", "setting": "nsp16/nsp10", "result": "2300 ± 120", "unit": "nM"}, {"measurement": "IC50", "setting": "[1]", "result": "330 ± 20", "unit": "nM"}, {"measurement": "IC50", "setting": "[2]", "result": "1300 ± 60", "unit": "nM"}]}, {"smiles": "Nc1ncnc2c1ncn2[C@@H]1O[C@H](CSCc2cc(C(=O)O)cc(-c3ccccc3)c2)[C@@H](O)[C@H]1O", "note": "[5p, 5-(((Adenosyl)thio)methyl)-[1,1′-biphenyl]-3-carboxylic acid]", "values": [{"measurement": "IC50", "setting": "[1]", "result": "0.97 ± 0.05", "unit": "nM"}, {"measurement": "IC50", "setting": "[2]", "result": "0.58 ± 0.03", "unit": "nM"}]}, {"smiles": "COc1ccc(SC[C@H]2O[C@@H](n3cnc4c(N)ncnc43)[C@H](O)[C@@H]2O)cc1C(=O)O", "note": "[10d, 2-Methoxy-5-((adenosyl)thio)benzoic acid]", "values": [{"measurement": "IC50", "setting": "[1]", "result": "13 ± 0.6", "unit": "nM"}, {"measurement": "IC50", "setting": "[2]", "result": "17 ± 0.9", "unit": "nM"}]}, {"smiles": "Nc1ncnc2c1ncn2[C@@H]1O[C@H](CSCc2cccc(CC(=O)O)c2)[C@@H](O)[C@H]1O", "note": "[5d, 2-(3-(((Adenosyl)thio)methyl)phenyl)acetic acid]", "values": [{"measurement": "IC50", "setting": "nsp16/nsp10", "result": "1840 ± 90", "unit": "nM"}, {"measurement": "IC50", "setting": "[1]", "result": "400 ± 30", "unit": "nM"}, {"measurement": "IC50", "setting": "[2]", "result": "680 ± 30", "unit": "nM"}]}, {"smiles": "Nc1ncnc2c1ncn2[C@@H]1O[C@H](CSc2ccc(-c3ccccc3)c(C(=O)O)c2)[C@@H](O)[C@H]1O", "note": "[10e, 4-((Adenosyl)thio)-[1,1′-biphenyl]-2-carboxylic acid]", "values": [{"measurement": "IC50", "setting": "[1]", "result": "24 ± 1", "unit": "nM"}, {"measurement": "IC50", "setting": "[2]", "result": "25 ± 2", "unit": "nM"}]}]}
